“Also recorded” adds a separate entry of the source.
Experiments:
3T3-LI mature adipocytes = experiment: Oil Red O staining of lipid accumulation in adipocytes; format: cell-based, murine; conditions: for number and size / morphology of lipid droplets vs. non-treated control: Oil Red O micrographs, peptides at 100 μM, Day 21, three times per week for three weeks; for reduction of lipid accumulation / lipid contents (in words): murine-based in vitro systems, mature adipocytes; for decrease in degree of lipid accumulation: quantitative Oil Red O analysis, Day 21
Protocol: FIG. 2A-G: Representative photomicrographs showing Oil Red O-stained mature adipocytes treated with peptides at 100 μM (Day 21). H: Quantitative analysis of the lipids accumulated in the adipocytes (Day 21). Control absorbance: 0.526 (Red line). I: Relative cell counts on day 21.
The effects of the minimal short peptides in blocking lipid accumulation in adipocytes were compared with their parent full-length peptide. After generating five different 3 amino acid fragments (KGG, GGR, GRA, RAK, and AKD) from the original ATS peptide (KGGRAKD (SEQ ID NO:1)), each peptide was administered to 3T3-LI pre-adipocytes in five varying concentrations. Peptides were treated to the adipocytes three times per week for three weeks. Oil Red O staining was utilized to assess the lipid contents in mature adipocytes in culture. The morphological characteristics of 3T3-LI mature adipocytes were observed by microscopy. […] Furthermore, the lipids were quantitatively analyzed. […] At the end point, the cell number was almost the same across the treatment groups, meaning that the reduction in lipid accumulation is not a consequence of toxicity of the peptides (FIG. 2I).
The number of viable cells is counted prior to Oil Red O staining using Cell Counting Kit 8 (Dojindo). This cell viability study allows one to determine potential toxicities of the peptides and compensate for cell number variation-causing artifacts. Oil Red O is dissolved in isopropanol at […] to create a working solution. 12 ml of Oil Red O working solution is mixed with 8 ml dH2O and incubated for 10 minutes. This solution is then filtered using a 0.2 μm syringe filter. Adipocytes seeded on 96-well plates are washed with PBS twice. 10% formaldehyde is added for initial fixation and the plates are incubated for at least 30 minutes. The formaldehyde is removed and the cells are once again washed twice, this time with dH2O. 60% isopropanol is added to each well. The plates are incubated for 5 minutes. The isopropanol is removed from the wells and replaced with Oil Red O working solution. The plates are incubated for an additional 10 minutes. The Oil Red O solution is removed and washed four times with dH2O. Lastly, digital micrographs of the lipid droplets in adipocytes are taken using a light microscope. After the staining protocol, all plates are washed three times with 60% isopropanol. Each time, 5 minutes of gentle rocking was used. The Oil Red O is extracted with 100% isopropanol with gentle rocking for 5 minutes. 200 μl isopropanol per well is used as a background to measure absorbance at 492 nm using a BioTek microplate reader.

[1] = tested on: DIO mice, obesity progression model (OPM); experiment: Body weight in pre-obese mice fed high fat diet (obesity progression model, OPM); format: in vivo; conditions: for anti-obesity efficacy (body weight): oral administration
Protocol: FIG. 3A-H: IP Preobese Body Weight. Relative body weight measurements for IP injected pre-obese mice. I-J: Body weight change. Changes in body weight compared using HFD control group as baseline value A1-F1: GTT. Blood glucose levels of peptide groups at endpoint, post-glucose injection (after 16 h fasting). A2-F2: ITT. Blood glucose levels of peptide groups at endpoint, post-insulin injection (after 6 h fasting).
FIG. 4A-F: SC Pre-obese Body Weight. Relative body weight measurements for SC injected pre-obese mice. G-H: Body weight change. Changes in body weight compared using HFD control group as baseline value. A1-F1: GTT. Blood glucose levels of peptide groups at endpoint, post-glucose injection (after 16 h fasting). A2-F2: ITT. Blood glucose levels of peptide groups at endpoint, post-insulin injection (after 6 h fasting).
FIG. 7A-F: Oral/Feeding Pre-obese Body Weight. Relative body weight measurements for orally administered pre-obese mice. A1-F1: GTT. Blood glucose levels at endpoint, post-glucose injection (after 16 h fasting). A2-F2: ITT. Blood glucose levels at endpoint, post-insulin injection (after 6 h fasting).
Prior to oral administration, peptides were administered to DIO mice via intraperitoneal (IP) and subcutaneous (SC) injections. This study was divided into two phases:
(§1) In the first phase, peptides were tested on pre-obese mice that were being fed high fat diet (HFD) to induce obesity (obesity progression model, OPM). In the second phase, these peptides were given to mice that had already developed obesity (obesity model, OM). […] As the activity of these three peptides varies depending on the injection route and the disease status, all three peptides, GGR, RAK, and AKD, were tested by oral administration.
Prior to oral administration, GGR, RAK, AKD, full-length ATS, and scrambled RKG peptides were administered to OPM mice via IP and SC injections to further screen an ideal peptide composition. PBS was included as a vehicle group. GGR, RAK, and AKD peptides were discovered to impede body weight gain in OPM mice. GGR and RAK were effective when given IP injections and AKD was effective by SC injections (FIGS. 3, 4).

[2] = tested on: DIO mice, obesity model (OM); experiment: Body weight in mice that had already developed obesity (obesity model, OM); format: in vivo; conditions: OM (post-obese) mice
Protocol: FIG. 5A-F: IP Post-obese Body Weight. Relative body weight measurements for IP injected post-obese mice. G-H: Body weight change. Changes in body weight compared using HFD control group as baseline value. A1-F1: GTT. Blood glucose levels of peptide groups at endpoint, post-glucose injection (after 16 h fasting). A2-F2: ITT. Blood glucose levels of peptide groups at endpoint, post-insulin injection (after 6 h fasting).
FIG. 6A-F: SC Post-obese Body Weight. Relative body weight measurements for SC injected post-obese mice. G-H: Body weight change. Changes in body weight compared using HFD control group as baseline value. A1-D1,F1: GTT. Blood glucose levels of peptide groups at endpoint, post-glucose injection (after 16 h fasting). A2-D2,F2: ITT. Blood glucose levels of peptide groups at endpoint, post-insulin injection (after 6 h fasting).
FIG. 8A-F: Oral/Feeding Post-obese Body Weight. Relative body weight measurements for orally administered post-obese mice. A1-F1: GTT. Blood glucose levels at endpoint, post-glucose injection (after 16 h fasting). A2-F2: ITT. Blood glucose levels at endpoint, post-insulin injection (after 6 h fasting).
as §1
The second phase signified the post-obesity stage, where the same methods from phase 1 were used on OM mice.

prohibitin = target: T1, prohibitin (Mus musculus, UniProt P67778); experiment: ATS/prohibitin binding by ATS magnetic bead immunoprecipitation and western blot; conditions: fractionated proteins from adipocytes incubated with ATS magnetic beads, western blot
T1 construct: Fractionated proteins isolated from adipocytes were incubated with the ATS magnetic beads; endogenous in cells; probably 3T3-L1
T1 sequence (P67778 2-272 limits assumed): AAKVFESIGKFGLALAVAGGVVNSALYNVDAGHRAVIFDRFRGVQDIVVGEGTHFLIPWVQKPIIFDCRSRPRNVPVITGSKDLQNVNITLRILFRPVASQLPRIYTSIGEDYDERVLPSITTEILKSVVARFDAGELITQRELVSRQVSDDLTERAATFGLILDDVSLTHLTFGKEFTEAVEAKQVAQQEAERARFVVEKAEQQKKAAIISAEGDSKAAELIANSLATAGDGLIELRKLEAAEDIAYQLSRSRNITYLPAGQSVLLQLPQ
Description: FIG. 1A: ATS/prohibitin binding determined by immunoprecipitation and western blot. FIG. 1B: Location and degree of prohibitin expression in pre- or mature adipocytes. PM, plasma membrane; Cyt, Cytoplasm. C: Confocal micrographs showing the location of prohibitin in mature- or pre-adipocytes.
It was confirmed that prohibitin shifts its location to the cell membrane as adipogenesis progresses and ATS binds to prohibition. The ATS/prohibitin binding was verified in pre- or mature adipocytes (Won, Y. W. et al. Nat Mater 13, 1157-1164, (2014)). Fractionated proteins isolated from adipocytes were incubated with the ATS magnetic beads and the protein captured by ATS was identified by western blotting. […] Prohibitin is observed in several intracellular locations at varying expression levels depending on the degree of adipogenesis (Wang, P. et al. Cell Mol Life Sci 61, 2405-2417, (2004); Patel, N. et al. Proceedings of the National Academy of Sciences of the United States of America 107, 2503-2508, (2010)). The degree and location of prohibitin expression in pre- or mature adipocytes was determined. […] Confocal microscopy also verified the prohibitin expression on the cell membrane of mature adipocytes (FIG. 1C). High-level prohibitin expression on the cell membrane of mature adipocytes is important to the ATS/prohibitin interaction.

[3] = tested on: epididymal fat tissues of DIO mice; experiment: Histological analysis of fat pads (adipocyte number and size); format: in vivo
Protocol: FIG. 9. Histological analysis fat pads. An automated system detected and counted adipocytes (yellow line). Adipocyte number and size: average of 3 hpf images from 2 mice (total 6 images/group).
GGR, RAK, and AKD peptides were tested in OPM and OM mice by oral administration. […] In obesity progression, adipocytes increase in both number and size due to escalating lipid accumulation (Parlee, S. D., et al., Methods Enzymol 537, 93-122, (2014)). Using the methods described above, abdominal fat pads of GGR, RAK, AKD, or PBS-treated DIO mice were histologically analyzed. Epididymal fat tissues were harvested from two mice per experimental group. All samples were fixed in 4% paraformaldehyde, H&E-stained, and imaged. At a 10× magnification, adipocyte cell counting was performed on the digital slide images using an automated adipocyte counting macro with the ImageJ software. A default thresholding method was used and [cell] sizing boundaries of 40-40,000 were set. Limitations of the segmentation tool led to some erroneous selections or regions of interest (ROI), which were manually corrected by adding or erasing lines. The number of cells per representative field were then determined using the ROI manager in ImageJ. Two or three high power fields (hpf) per tissue and two tissue samples per group were analyzed to reduce variability. Average cell count for each group was calculated accordingly. Areas of all adipocytes of interest were measured using the ROI measurement tool (ImageJ) and average area per cell was calculated accordingly.
The primary function of adipocytes is to store energy in the form of lipids. The volume of lipid stored in an adipocyte cell increases as the third power of the diameter. Because mature adipocytes are composed of large lipid droplets that are surrounded by very thin cytoplasmic layers, the increase in volume of an adipocyte cell likely indicates increased lipid storage. Thus, smaller adipocyte size/area translates to reduced lipid accumulation.

## AKD
3T3-LI mature adipocytes
  number and size / morphology of lipid droplets vs. non-treated control: smaller than those in the non-treated control
  reduction of lipid accumulation / lipid contents (in words): able to reduce lipid contents in mature Adipocytes; also recorded: effective in reducing lipid accumulation
  decrease in degree of lipid accumulation: approximately 20%
[1]; SC injections
  prevention of body weight gain: best working peptide; also recorded: effective
[1]
  anti-obesity efficacy (body weight): efficacious over GGR

## GGR
[2]; IP injections
  prevention of body weight gain: positive effects on prevention of body weight gain
[2]; SC injections
  prevention of body weight gain: effective
3T3-LI mature adipocytes
  number and size / morphology of lipid droplets vs. non-treated control: smaller than those in the non-treated control
  reduction of lipid accumulation / lipid contents (in words): able to reduce lipid contents in mature Adipocytes; also recorded: effective in reducing lipid accumulation
  decrease in degree of lipid accumulation: approximately 20%
[1]; IP injections
  prevention of body weight gain: positive effects on prevention of body weight gain; also recorded: effective

## GRA
3T3-LI mature adipocytes
  number and size / morphology of lipid droplets vs. non-treated control: moderate differences in the morphology of lipid droplets

## KGG
3T3-LI mature adipocytes
  number and size / morphology of lipid droplets vs. non-treated control: moderate differences in the morphology of lipid droplets

## KGGRAKD (SEQ ID NO:1) [ATS, parent full-length peptide, reference compound]
prohibitin
  ATS/prohibitin binding: specifically binds to prohibitin
3T3-LI mature adipocytes
  number and size / morphology of lipid droplets vs. non-treated control: smaller than those in the non-treated control

## RAK
[3]; DIO mice
  activity by histological analysis of the fat pads: more active than GGR; also recorded: highest efficacy
[3]; H&E-stained epididymal fat, 10× magnification, among GGR, RAK, AKD, PBS groups
  average cell count per field: highest average cell count per field
[3]; H&E-stained epididymal fat, among GGR, RAK, AKD, PBS groups
  average adipocyte area per cell: lowest average adipocyte area per cell
[2]; IP injections
  prevention of body weight gain: positive effects on prevention of body weight gain
[2]; SC injections
  prevention of body weight gain: effective
[2]; oral administration
  anti-obesity efficacy (body weight): has anti-obesity efficacy in both models
3T3-LI mature adipocytes
  number and size / morphology of lipid droplets vs. non-treated control: smaller than those in the non-treated control
  reduction of lipid accumulation / lipid contents (in words): able to reduce lipid contents in mature Adipocytes; also recorded: effective in reducing lipid accumulation
  decrease in degree of lipid accumulation: approximately 20%
[1]; IP injections
  prevention of body weight gain: positive effects on prevention of body weight gain; also recorded: effective
[1]
  anti-obesity efficacy (body weight): efficacious over GGR; also recorded: has anti-obesity efficacy in both models

## RKG [reference compound]
[2]; IP injections
  prevention of body weight gain: did not show meaningful efficacy over the vehicle group; also recorded: no anti-obesity effects
[2]; SC injections
  prevention of body weight gain: no anti-obesity effects
[1]; IP injections
  prevention of body weight gain: did not show meaningful efficacy over the vehicle group; also recorded: no anti-obese effects; also recorded: no anti-obesity effects
[1]; SC injections
  prevention of body weight gain: no anti-obese effects; also recorded: no anti-obesity effects
